Assay results taken from patent publication US5409946A, “Isoxazole, isothiazole and pyrazole compounds that enhance cognitive function” (Abbott Laboratories, priority 1993, dated 1995).
“Also recorded” adds a separate entry of the source. Where a name gives a salt, the structure may show the parent alone. Read-outs that look alike come from different tables or passages of the source.

Tests used:
ethanol-induced narcosis = type: in vivo, male CD1 mice
Source text: It is known that administration of ethanol to mice induces a state of narcosis in the animals. […] It is also known that certain compounds can modify the narcotic effect of ethanol in this model.
Animals: Male CD1 mice (Charles-River Co., Portage, Mich.) weighing 25-30 g were used in the experiments. Upon arrival they were caged in groups of 14 and allowed to acclimatize to laboratory conditions for one week before the beginning of the studies. They were fed standard rodent diet with food and water ad libitum.
Duration of sleep time: Mice received intraperitoneal (i.p.) injections of ethanol and either saline or one of the drug treatments. Upon loss of the righting reflex, a timer was started to record the duration of the sleep time until the reflex was recovered. Two types of experiments were conducted to study the effect of drugs before (pre-treatment) or after (post-treatment) the injection of the narcotic dose of ethanol. In the pre-treatment experiments the drugs were injected i.p., 15 minutes before ethanol. In the post-treatment experiments the drugs were administered i.p., 1 minute after the animals lost the righting reflex, which was approximately 5 minutes after administration of ethanol.
Drugs: Ethanol was prepared as a 20% v/v (16% w/v) solution in saline. Based on previous studies, a dose of 87 mmol/kg (4 g/kg) was selected as the narcotic dose. RO 15-4513, the benzodiazepine receptor inverse agonist discussed in the Background section, was purchased from RBI (Natick, Mass.). It was dissolved in saline solution with Tween-80 and ultrasonically homogenized for 3 minutes. […] The compounds of Examples 2 and 4, both novel neuronal nicotinic receptor ligands according to the present invention, were also dissolved in saline to the desired concentrations.

[1] = target: neuronal nicotinic receptors; assay: Displacement of [3H]-MCC or [3H]-cytisine from neuronal nicotinic receptors, whole rat brain membranes; type: binding; conditions: Table 1, read-out: Nicotinic Receptor Ki
Procedure: Binding of [^3 H]-methylcarbamylcholine ([^3 H]-MCC) or [^3 H]-cytisine ([^3 H]-CYT) to nicotinic receptors was accomplished using crude synaptic membrane preparations from whole rat brain (Snyder and Enna, Brain Research, 1975, 100:81). Washed membranes were stored at -80° C. prior to use. Frozen aliquots were slowly thawed and resuspended in 20 volumes of buffer (containing: 120 mM NaCl, 5 mM KCl, 2 mM MgCl2, 2 mM CaCl2 and 50 mM Tris-Cl, pH 7.4 @4° C). After centrifuging at 20,000 X g for 15 minutes, the pellets were resuspended in 30 volumes of buffer. Homogenate (containing 125-150 μg protein) was added to triplicate tubes containing concentrations of test compound and [^3 H]-MCC (3 nM) in a final volume of 500 μL. Samples were incubated for 60 minutes at 4° C., then rapidly filtered through Whatman GF/B filters presoaked in 0.5% polyethylimine using 3×4 mL of ice-cold buffer. Alternately, homogenate and test compound were incubated for 75 min with [^3 H]-CYT (1.3 nM), then rapidly filtered, as described above. The filters are counted in 4 mL of Ecolume® (ICN). […] IC50 values were determined with the ALLFIT nonlinear least squares curve-fitting program and IC50 values were converted to Ki values using the Cheng and Prusoff correction (Ki =IC50 /(1+[ligand]/Kd of ligand)). Alternately, data were expressed as a percentage of the total specific binding.

effects of ethanol = conditions: rats; cited from earlier work
[2] = tested on: cholinergic receptors located in the heart and in cortical tissues; conditions: cited from earlier work
[3] = in vivo; cited from earlier work
[4] = post-treatment, i.p., p<0.05, one-tailed t test

For `CCc1cc([C@@H]2CCCN2C)on1.O=C(O)C(=O)O` [Example 4, 3-Ethyl-5-(1-methyl-2(S)-pyrrolidinyl)-isoxazole oxalate salt], the Sleeping time (ethanol-induced narcosis; post-treatment, 0.062 μmol/kg i.p.) was 73 ± 12 % of controls, the Sleeping time (ethanol-induced narcosis; post-treatment, 0.19 μmol/kg i.p.) was 61 ± 7 % of controls and the Sleeping time (ethanol-induced narcosis; post-treatment, 0.62 μmol/kg i.p.) was 59 ± 8 % of controls. The “effect of post-treatment on ethanol-induced narcosis” value (ethanol-induced narcosis; [4]) was “significantly reduced” and the Ki ([1]; oxalate salt) was 9 nM.

In the case of `COc1cc([C@@H]2CCCN2C)on1` [Example 29, 5-(1-methyl-2(S)-pyrrolidinyl-3-methoxy-isoxazole hydrochloride], the Ki [1] is reported as 62 nM.

For `CN1CCC[C@H]1c1cc(C(F)(F)F)no1` [Example 32, 3-trifluoromethyl-5-(1-methyl-2(S)-pyrrolidinyl)-isoxazole, hydrochloride], the Ki [1] was 6.1 nM.

`Cc1noc([C@@H]2CCCN2C)c1Cc1ccccc1` [Example 36, 3-methyl-5-(1-methyl-2(S)-pyrrolidinyl)-4-(phenylmethyl-isoxazole hydrochloride] gave a Ki [1] of 77.6 nM.

With `CCc1c(C)noc1[C@@H]1CCCN1C` [Example 37, 3-methyl-5-(1-methyl-2(S)-pyrrolidinyl)-4-ethyl-isoxazole hydrochloride] the Ki [1] was 105 nM.

In the case of `Cc1cc([C@H]2CCCCN2)on1` [Example 38, 3-methyl-5-(2(R)-piperidinyl)-isoxazole hydrochloride], the Ki [1] is reported as 386 nM.

Work on `Cc1cc([C@H]2CCCCN2C)on1` [Example 39, 3-methyl-5-(1-methyl-2(R)-piperidinyl)-isoxazole hydrochloride] yielded a Ki [1] of 357 nM.

For `Cc1cc([C@@H]2CCCCN2)on1` [Example 40, 3-methyl-5-(2(S)-piperidinyl)-isoxazole hydrochloride], the Ki [1] was 283 nM.

Compound `Cc1cc([C@@H]2CCN2C)on1` [Example 41, 3-methyl-5-(1-methyl-2(S)-azetidinyl)-isoxazole hydrochloride] has a Ki [1] of 2.5 nM.

In the case of `Cc1cc([C@@H]2CCCN2C)n(-c2ccccc2)n1` [Example 42, 3-methyl-5-(1-methyl-2(S)-pyrrolidinyl)-1-phenyl-pyrazole hydrochloride], the Ki [1] is reported as 145 nM.

For `Cc1cc([C@@H]2CCCN2C)[nH]n1` [Example 43, 3-methyl-5-(1-methyl-2(S)-pyrrolidinyl)-pyrazole hydrochloride], the Ki [1] was 228 nM.

For `CCOC(=O)c1ncn2c1CN(C)C(=O)c1cc(N=[N+]=[N-])ccc1-2` [RO 15-4513], the Sleeping time (ethanol-induced narcosis; post-treatment, 1 μmol/kg i.p.) was 84 ± 14 % of controls, the Sleeping time (ethanol-induced narcosis; post-treatment, 3 μmol/kg i.p., statistically significant) was 165 ± 22 % of controls and the Sleeping time (ethanol-induced narcosis; post-treatment, 10 μmol/kg i.p.) was 118 ± 13 % of controls. The Sleeping time (ethanol-induced narcosis; post-treatment, 30 μmol/kg i.p.) was 73 ± 11 % of controls, the “effect of post-treatment on ethanol-induced narcosis” value (ethanol-induced narcosis; [4]) was “significantly prolonged the narcotic effect of ethanol; also recorded: adversely potentiated the narcotic effect” and the Sleeping time (ethanol-induced narcosis; pre-treatment, 1 μmol/kg i.p.) was 101 ± 9 % of controls. The Sleeping time (ethanol-induced narcosis; pre-treatment, 3 μmol/kg i.p.) was 107 ± 19 % of controls, the Sleeping time (ethanol-induced narcosis; pre-treatment, 10 μmol/kg i.p.) was 79 ± 6 % of controls and the Sleeping time (ethanol-induced narcosis; pre-treatment, 30 μmol/kg i.p., statistically significant) was 57 ± 14 % of controls. The “effect of pre-treatment on ethanol sleeping time” value (ethanol-induced narcosis; pre-treatment, i.p., p<0.05, one-tailed t test) was “significantly reduced the sleeping time of ethanol in mice” and the “antagonism of the effects of ethanol” value (effects of ethanol) was “selectively antagonize the effects of ethanol in rats”.

In the case of `CCN1C(=O)CC2(CCN(C)CC2)C1=O` [RS-86], the “agonism at cardiac receptors” value ([2]; cardiac) is given as “full agonist” and the “agonism at cortical receptors” value ([2]; cortical) is given as “partial agonist”.

For `C[N+](C)(C)CCOC(N)=O` [carbachol], the CNS penetration [3] is given as “poor CNS penetration”.
